Experimental data taken from ChEMBL document CHEMBL3769389, “Development of a potent 2-oxoamide inhibitor of secreted phospholipase A2 guided by molecular docking calculations and molecular dynamics simulations” (Bioorg Med Chem, 2016).

Tests used:
[1] = molecular target: T1, Phospholipase A2, membrane associated (Homo sapiens, UniProt P14555); assay: Inhibition of human group 2A secreted phospholipase A2 by fluorescence assay
T1 sequence (P14555 whole entry): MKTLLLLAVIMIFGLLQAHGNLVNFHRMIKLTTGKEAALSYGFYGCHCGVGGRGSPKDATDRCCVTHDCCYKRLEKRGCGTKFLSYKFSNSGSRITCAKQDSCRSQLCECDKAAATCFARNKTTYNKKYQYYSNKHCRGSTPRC

Phospholipase A2 group V = molecular target: T2, Phospholipase A2 group V (Homo sapiens, UniProt P39877); assay: Inhibition of human group 5 secreted phospholipase A2 by fluorescence assay
T2 sequence (P39877 whole entry): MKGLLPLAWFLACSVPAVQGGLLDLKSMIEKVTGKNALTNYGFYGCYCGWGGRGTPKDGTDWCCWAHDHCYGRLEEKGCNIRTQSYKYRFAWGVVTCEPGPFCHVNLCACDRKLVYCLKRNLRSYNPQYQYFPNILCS

[2] = molecular target: T3, Phospholipase A2, membrane associated (Mus musculus, UniProt P31482); assay: Inhibition of mouse group 2A secreted phospholipase A2 by fluorescence assay
T3 sequence (P31482 whole entry): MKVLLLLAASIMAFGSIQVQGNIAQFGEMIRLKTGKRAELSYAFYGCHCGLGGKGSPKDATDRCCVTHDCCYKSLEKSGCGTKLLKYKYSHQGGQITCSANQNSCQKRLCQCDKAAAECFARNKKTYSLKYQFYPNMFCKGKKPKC

[3] = molecular target: T4, Group 10 secretory phospholipase A2 (Homo sapiens) (UniProt O15496); assay: Inhibition of human group 10 secreted phospholipase A2 assessed as remaining activity at 1000 nM by fluorescence assay
T4 sequence (whole entry): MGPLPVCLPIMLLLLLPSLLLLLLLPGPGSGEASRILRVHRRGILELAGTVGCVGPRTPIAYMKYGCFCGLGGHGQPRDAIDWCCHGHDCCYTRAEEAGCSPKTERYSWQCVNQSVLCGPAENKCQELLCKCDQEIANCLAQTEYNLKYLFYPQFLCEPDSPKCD

[4] = molecular target: Phospholipase A2 (Homo sapiens) (UniProt P04054); assay: Inhibition of human group 1B secreted phospholipase A2 assessed as remaining activity at 1000 nM by fluorescence assay
[5] = molecular target: T5, Group IIE secretory phospholipase A2 (Homo sapiens) (UniProt Q9NZK7); assay: Inhibition of human group 2E secreted phospholipase A2 assessed as remaining activity at 1000 nM by fluorescence assay
T5 sequence (whole entry): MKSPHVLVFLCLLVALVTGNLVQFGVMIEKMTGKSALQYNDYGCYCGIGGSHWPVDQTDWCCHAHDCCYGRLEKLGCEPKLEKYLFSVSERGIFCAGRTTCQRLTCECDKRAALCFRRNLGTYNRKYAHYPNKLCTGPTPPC

[6] = molecular target: T6, Group IIF secretory phospholipase A2 (Homo sapiens) (UniProt Q9BZM2); assay: Inhibition of human group 2F secreted phospholipase A2 assessed as remaining activity at 1000 nM by fluorescence assay
T6 sequence (whole entry): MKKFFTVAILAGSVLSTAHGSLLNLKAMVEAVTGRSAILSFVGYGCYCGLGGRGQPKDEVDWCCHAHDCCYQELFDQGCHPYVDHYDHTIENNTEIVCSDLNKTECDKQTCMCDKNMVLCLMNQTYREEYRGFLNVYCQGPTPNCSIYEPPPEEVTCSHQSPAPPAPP

[7] = molecular target: T7, Group 10 secretory phospholipase A2 (Mus musculus) (UniProt Q9QXX3); assay: Inhibition of mouse group 10 secreted phospholipase A2 assessed as remaining activity at 1000 nM by fluorescence assay
T7 sequence (whole entry): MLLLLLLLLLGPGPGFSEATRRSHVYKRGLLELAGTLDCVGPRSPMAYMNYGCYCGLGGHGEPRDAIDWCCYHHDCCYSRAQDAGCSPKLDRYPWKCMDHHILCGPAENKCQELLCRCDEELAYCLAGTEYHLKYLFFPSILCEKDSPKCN

[8] = molecular target: T8, Group IID secretory phospholipase A2 (Mus musculus) (UniProt Q9WVF6); assay: Inhibition of mouse 2D secreted phospholipase A2 assessed as remaining activity at 1000 nM by fluorescence assay
T8 sequence (whole entry): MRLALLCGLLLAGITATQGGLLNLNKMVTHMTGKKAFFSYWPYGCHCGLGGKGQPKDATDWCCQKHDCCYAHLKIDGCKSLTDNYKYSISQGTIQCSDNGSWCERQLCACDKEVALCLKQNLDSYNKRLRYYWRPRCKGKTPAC

[9] = molecular target: T9, Phospholipase A2 group V (Mus musculus) (UniProt P97391); assay: Inhibition of mouse group 5 secreted phospholipase A2 assessed as remaining activity at 1000 nM by fluorescence assay
T9 sequence (whole entry): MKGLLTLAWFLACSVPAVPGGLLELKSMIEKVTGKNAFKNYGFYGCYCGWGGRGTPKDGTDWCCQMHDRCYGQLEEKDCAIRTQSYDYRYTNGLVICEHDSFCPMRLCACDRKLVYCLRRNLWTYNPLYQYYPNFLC

Homo sapiens = organism: Homo sapiens; assay: Selectivity ratio of IC50 for human group 5 secreted phospholipase A2 to human group 2A secreted phospholipase A2
[10] = molecular target: T10, Phospholipase A2, membrane associated (Homo sapiens) (UniProt P14555); assay: Potency index, ratio of GK126 IC50 to compound IC50 for human group 2A secreted phospholipase A2
T10 sequence (whole entry): T1 sequence (P14555 whole entry)

[11] = molecular target: T11, Phospholipase A2, membrane associated (Mus musculus) (UniProt P31482); assay: Potency index, ratio of GK126 IC50 to compound IC50 for mouse group 2A secreted phospholipase A2
T11 sequence (whole entry): T3 sequence (P31482 whole entry)

[12] = molecular target: T10, Phospholipase A2, membrane associated (Homo sapiens); assay: Inhibition of human group 2A secreted phospholipase A2 at 1 uM by fluorescence assay
[13] = molecular target: T11, Phospholipase A2, membrane associated (Mus musculus); assay: Inhibition of mouse group 2A secreted phospholipase A2 at 1 uM by fluorescence assay
[14] = molecular target: T10, Phospholipase A2, membrane associated (Homo sapiens); assay: Inhibition of human group 2A secreted phospholipase A2 at 10 uM by fluorescence assay
[15] = molecular target: Phospholipase A2 (Homo sapiens) (UniProt P04054); assay: Inhibition of human group 1B secreted phospholipase A2 at 10 uM by fluorescence assay
[16] = molecular target: T12, Phospholipase A2 group V (Homo sapiens) (UniProt P39877); assay: Inhibition of human group 5 secreted phospholipase A2 at 10 uM by fluorescence assay
T12 sequence (whole entry): T2 sequence (P39877 whole entry)

[17] = molecular target: T4, Group 10 secretory phospholipase A2 (Homo sapiens); assay: Inhibition of human group 10 secreted phospholipase A2 at 10 uM by fluorescence assay

Sequence of Phospholipase A2 (Homo sapiens) (P04054 23-148 limits assumed): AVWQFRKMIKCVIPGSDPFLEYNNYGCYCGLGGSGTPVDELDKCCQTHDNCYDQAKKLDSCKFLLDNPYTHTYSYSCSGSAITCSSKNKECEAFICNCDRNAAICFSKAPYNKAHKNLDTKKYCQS

Row | SMILES | inhibition [12] [%] | inhibition [13] [%] | inhibition [14] [%] | inhibition [15] [%] | inhibition [16] [%] | inhibition [17] [%] | also measured
1 | CCCCCCCCCCCCCCC(=O)C(=O)N[C@H](C(=O)O)C(C)C |  |  |  |  |  |  | IC50 [1]: 143 nM; IC50 (Phospholipase A2 group V): 1200 nM; IC50 [2]: 68 nM; Activity [3]: 95%; Activity [4]: 98%; Activity [5]: 93%; Activity [6]: 94%; Activity [7]: 98%; Activity [8]: 99%; Activity [9]: 90%; Ratio IC50 (Homo sapiens): 10; Ratio IC50 [10]: 2; Ratio IC50 [11]: 2
2 | CCCCCCCCCCCCCCC(=O)C(=O)N[C@H](C(=O)O)C(C)(C)C | < 25 | < 25 |  |  |  |  | 
3 | CCCCCCCCCCCCCCC(=O)C(=O)N[C@@H](CCC(=O)O)C(=O)O | < 25 | < 25 |  |  |  |  | 
4 | CC(C)[C@H](NC(=O)C(=O)CCCCc1ccccc1)C(=O)O |  |  | 11 | 56 | 40 | 40 | 
5 | CCCCCCCCCCCCCCC(=O)C(=O)NC(C)(C)C(=O)O | < 25 | < 25 |  |  |  |  | 
6 | CCCCCCCCCCCCCCC(=O)C(=O)N[C@@H](CCC(=O)O)C(=O)OCC | < 25 | < 25 |  |  |  |  | 
7 | CCCCCCCCCCCCCCC(=O)C(=O)N[C@@H](C)C(=O)O | < 25 | < 25 |  |  |  |  | 
8 | CCCCCCCCCCCCCCC(=O)C(=O)N1CCC[C@H]1C(=O)O | < 25 | < 25 |  |  |  |  | 
9 | CC(C)[C@H](NC(=O)C(=O)c1ccc2ccccc2c1)C(=O)O |  |  | 50 | 50 | 53 | 56 | 
10 | CC(C)[C@H](NC(=O)C(=O)CCCCc1ccc(-c2ccccc2)cc1)C(=O)O |  |  | 21 | 30 | 50 | 54 | 
11 | CC(C)[C@H](NC(=O)C(=O)CCCCc1ccc2ccccc2c1)C(=O)O |  |  | 27 | 20 | 26 | 51 | 
